Drawing on the OligoGym collection, this text covers caspase activation (% of PBS control) for 89 sequences.

Bases are written 5' to 3'; sugars and linkages follow in the same order, as letters with counts (s phosphorothioate, o phosphodiester; PS: all linkages phosphorothioate). C may stand for cytosine or 5-methylcytosine; the collection does not tell. l = locked nucleic acid (LNA); d = 2'-deoxy (DNA)

The series deals with HIF1A. Briefly: HeLa, 100 nM transfected, 24 h, mean of 3. The settings on record: ASO.

As for “GTTACTGCCTTCTTAC (sugars lllldddddddldldl, PS)”, the caspase activation (% of PBS control) is 281.
“TTACTGCCTTCTT (sugars l2 d1 l1 d8 l1, PS)” yielded a caspase activation (% of PBS control) of 147.
Sequence TGGCAAGCATCCTGTA (sugars l4 d9 l3, PS) showed a caspase activation (% of PBS control) of 412.
As for “GTTACTGCCTTCTTAC (sugars lddldddddddlddll, PS)”, the figure is 129; as for TGGCAAGCATCCTGTA (sugars l2 d10 l4, PS), 346; as for “TGGCAAGCATCCTGTA (sugars l5 d7 l2 d1 l1, PS)”, 381.
As for “CAAGCATCCTGTA (sugars l1 d1 l2 d8 l1, PS)”, the figure is 145; as for “TGGCAAGCATCCT (sugars l2 d1 l1 d8 l1, PS)”, 383; as for “TACTGCCTTCTTA (sugars l1 d1 l2 d8 l1, PS)”, 270.
As to “GTTACTGCCTTCTTAC (sugars l1 d10 l2 d1 l2, PS)”, the caspase activation (% of PBS control) is 136.
The sequence “GTTACTGCCTTCTTAC (sugars lldllddddddlldll, PS)” gave a caspase activation (% of PBS control) of 289.
In the case of GTTACTGCCTTCTTAC (sugars l1 d11 l4, PS), the caspase activation (% of PBS control) stood at 125.
In turn, “TTACTGCCTTCTT (sugars l1 d1 l2 d8 l1, PS)” displayed a caspase activation (% of PBS control) of 153.
Under “GTTACTGCCTTCTTAC (sugars lldldddddddlldll, PS)” stands 163; under “TGGCAAGCATCCTGTA (sugars lldldddddddlldll, PS)”, 410.
For the sequence TTACTGCCTTCTT (sugars l1 d11 l1, PS), the caspase activation (% of PBS control) came to 82.9.
In the case of “ACTGCCTTCTTAC (sugars l1 d2 l1 d7 l2, PS)”, the caspase activation (% of PBS control) stood at 112.
Regarding “GTTACTGCCTTCT (sugars l1 d1 l2 d7 l2, PS)”, the caspase activation (% of PBS control) was 154.
“GTTACTGCCTTCTTAC (sugars ldldlddddddlldll, PS)” had a caspase activation (% of PBS control) of 250.
GTTACTGCCTTCT (sugars l1 d11 l1, PS): the caspase activation (% of PBS control) turned out to be 112.
Regarding “TGGCAAGCATCCTGTA (sugars l1 d1 l2 d11 l1, PS)”, the caspase activation (% of PBS control) turned out to be 324.
The sequence “TGGCAAGCATCCTGTA (sugars l1 d2 l1 d9 l3, PS)” displayed a caspase activation (% of PBS control) of 254.
Turning to GTTACTGCCTTCTTAC (sugars l5 d9 l2, PS), the caspase activation (% of PBS control) is 363.
“TGGCAAGCATCCTGTA (sugars llddlddddddldlll, PS)” registered a caspase activation (% of PBS control) of 425.
The sequence “GTTACTGCCTTCTTAC (sugars l3 d8 l2 d2 l1, PS)” gave a caspase activation (% of PBS control) of 273.
For the sequence “GTTACTGCCTTCTTAC (sugars l1 d10 l1 d1 l3, PS)”, the caspase activation (% of PBS control) turned out to be 125.
As for ACTGCCTTCTTAC (sugars l3 d9 l1, PS), the figure is 332.
On to “GCAAGCATCCTGT (sugars l2 d1 l1 d7 l2, PS)”, for which the caspase activation (% of PBS control) stood at 319.
The sequence “TGGCAAGCATCCTGTA (sugars l1 d1 l1 d11 l2, PS)” displayed a caspase activation (% of PBS control) of 135.
As for “GTTACTGCCTTCTTAC (sugars lddldddddddllldl, PS)”, the figure is 227; as for “GTTACTGCCTTCTTAC (sugars ldddlddddddlddll, PS)”, 133.
On to “GTTACTGCCTTCTTAC (sugars lddllddddddlddll, PS)”, for which the caspase activation (% of PBS control) came out at 218.
Sequence GCAAGCATCCTGT (sugars l4 d6 l3, PS) came in with a caspase activation (% of PBS control) of 340.
In turn, “TGGCAAGCATCCTGTA (sugars l2 d1 l2 d6 l5, PS)” registered a caspase activation (% of PBS control) of 477.
“ACTGCCTTCTTAC (sugars l1 d1 l2 d8 l1, PS)” displayed a caspase activation (% of PBS control) of 222.
In turn, “CAAGCATCCTGTA (sugars l1 d1 l1 d8 l2, PS)” showed a caspase activation (% of PBS control) of 171.
Under “GTTACTGCCTTCTTAC (sugars l1 d1 l3 d8 l3, PS)” stands 463; under “TGGCAAGCATCCTGTA (sugars l5 d6 l2 d1 l2, PS)”, 367; under “GTTACTGCCTTCTTAC (sugars lldllddddddllddl, PS)”, 356.
Under “GTTACTGCCTTCTTAC (sugars l1 d11 l1 d1 l2, PS)” stands 117.
“TGGCAAGCATCCTGTA (sugars llldlddddddlddll, PS)” returned a caspase activation (% of PBS control) of 348.
The sequence “GTTACTGCCTTCTTAC (sugars lddldddddddddldl, PS)” showed a caspase activation (% of PBS control) of 121.
In turn, “TGGCAAGCATCCTGTA (sugars ldldldddddddllll, PS)” registered a caspase activation (% of PBS control) of 309.
“GGCAAGCATCCTG (sugars l1 d1 l2 d8 l1, PS)” displayed a caspase activation (% of PBS control) of 547.
Under “GTTACTGCCTTCTTAC (sugars l1 d1 l3 d7 l4, PS)” stands 465.
“TTACTGCCTTCTT (sugars ldllddddddldl, PS)” displayed a caspase activation (% of PBS control) of 181.
“TGGCAAGCATCCTGTA (sugars l1 d3 l1 d6 l5, PS)” returned a caspase activation (% of PBS control) of 396.
Sequence “GTTACTGCCTTCTTAC (sugars ldlddddddddlldll, PS)” had a caspase activation (% of PBS control) of 135.
Regarding ACTGCCTTCTTAC (sugars l4 d8 l1, PS), the caspase activation (% of PBS control) is 387.
In the case of “GTTACTGCCTTCTTAC (sugars lddlldddddddlddl, PS)”, the caspase activation (% of PBS control) was determined as 229.
“TGGCAAGCATCCTGTA (sugars l1 d12 l1 d1 l1, PS)” returned a caspase activation (% of PBS control) of 150.
Under TTACTGCCTTCTT (sugars l3 d8 l2, PS) stands 226; under “GTTACTGCCTTCTTAC (sugars l1 d1 l2 d11 l1, PS)”, 156.
Take “TGGCAAGCATCCTGTA (sugars ldldlddddddldldl, PS)”: the caspase activation (% of PBS control) is 175.
As to “TGGCAAGCATCCTGTA (sugars l1 d2 l2 d7 l4, PS)”, the caspase activation (% of PBS control) came to 435.
Turning to “GTTACTGCCTTCTTAC (sugars l2 d1 l1 d10 l2, PS)”, the caspase activation (% of PBS control) is 97.3.
“TGGCAAGCATCCTGTA (sugars l1 d10 l3 d1 l1, PS)”: the caspase activation (% of PBS control) came out at 381.
As for “ACTGCCTTCTTAC (sugars l2 d1 l1 d8 l1, PS)”, the figure is 177; as for “GTTACTGCCTTCTTAC (sugars ldldddddddddlddl, PS)”, 118; as for “GTTACTGCCTTCTTAC (sugars l2 d1 l2 d9 l2, PS)”, 161.
The sequence “TACTGCCTTCTTA (sugars l1 d1 l1 d8 l2, PS)” registered a caspase activation (% of PBS control) of 277.
As for “GTTACTGCCTTCTTAC (sugars l1 d1 l3 d10 l1, PS)”, the figure is 323.
Under GTTACTGCCTTCTTAC (sugars l4 d9 l3, PS) stands 160; under GTTACTGCCTTCT (sugars l3 d7 l3, PS), 267.
For GTTACTGCCTTCT (sugars l2 d8 l3, PS), the caspase activation (% of PBS control) amounted to 168.
Under “GTTACTGCCTTCTTAC (sugars l2 d9 l3 d1 l1, PS)” stands 333; under GTTACTGCCTTCTTAC (sugars l4 d7 l5, PS), 461.
“GTTACTGCCTTCTTAC (sugars ldldlddddddlddll, PS)” had a caspase activation (% of PBS control) of 220.
In turn, “TGGCAAGCATCCTGTA (sugars lldldddddddllddl, PS)” showed a caspase activation (% of PBS control) of 309.
On to “TGGCAAGCATCCTGTA (sugars lldldddddddldlll, PS)”, for which the caspase activation (% of PBS control) worked out at 423.
For “ACTGCCTTCTTAC (sugars l1 d1 l2 d6 l3, PS)”, the caspase activation (% of PBS control) was 247.
GTTACTGCCTTCTTAC (sugars l1 d14 l1, PS) registered a caspase activation (% of PBS control) of 102.
Sequence “TGGCAAGCATCCTGTA (sugars l1 d11 l2 d1 l1, PS)” registered a caspase activation (% of PBS control) of 231.
In the case of “GTTACTGCCTTCTTAC (sugars l5 d6 l3 d1 l1, PS)”, the caspase activation (% of PBS control) is 603.
“GTTACTGCCTTCTTAC (sugars ldlllddddddlldll, PS)” gave a caspase activation (% of PBS control) of 410.
“TACTGCCTTCTTA (sugars l1 d2 l1 d7 l2, PS)”: the caspase activation (% of PBS control) amounted to 156.
For the sequence “TGGCAAGCATCCTGTA (sugars ldlllddddddldddl, PS)”, the caspase activation (% of PBS control) was determined as 417.
On to “CAAGCATCCTGTA (sugars l2 d8 l1 d1 l1, PS)”, for which the caspase activation (% of PBS control) came out at 175.
The sequence TTACTGCCTTCTT (sugars l1 d9 l3, PS) yielded a caspase activation (% of PBS control) of 131.
On to “GTTACTGCCTTCTTAC (sugars ldlddddddddldddl, PS)”, for which the caspase activation (% of PBS control) worked out at 115.
In the case of “TGGCAAGCATCCTGTA (sugars l2 d2 l1 d8 l3, PS)”, the caspase activation (% of PBS control) came to 397.
“GTTACTGCCTTCTTAC (sugars llddlddddddlddll, PS)” yielded a caspase activation (% of PBS control) of 193.
As for “GTTACTGCCTTCTTAC (sugars ldlllddddddldldl, PS)”, the figure is 438; as for “GTTACTGCCTTCTTAC (sugars l2 d2 l1 d7 l4, PS)”, 324.
In turn, “TACTGCCTTCTTA (sugars ldllddddddldl, PS)” yielded a caspase activation (% of PBS control) of 317.
For “TGGCAAGCATCCTGTA (sugars ldldldddddddlddl, PS)”, the caspase activation (% of PBS control) turned out to be 226.
As for “TGGCAAGCATCCTGTA (sugars ldddlddddddlldll, PS)”, the figure is 285; as for TGGCAAGCATCCT (sugars l1 d11 l1, PS), 123; as for “TGGCAAGCATCCTGTA (sugars ldldldddddddldll, PS)”, 290.
